# Measurements as given in PMC4983742 (ACS Medicinal Chemistry Letters, 2016).
# Target: T1, androgen receptor (AR) (Homo sapiens, UniProt P10275, T878A)
# T1 sequence (P10275 1-920 T878A): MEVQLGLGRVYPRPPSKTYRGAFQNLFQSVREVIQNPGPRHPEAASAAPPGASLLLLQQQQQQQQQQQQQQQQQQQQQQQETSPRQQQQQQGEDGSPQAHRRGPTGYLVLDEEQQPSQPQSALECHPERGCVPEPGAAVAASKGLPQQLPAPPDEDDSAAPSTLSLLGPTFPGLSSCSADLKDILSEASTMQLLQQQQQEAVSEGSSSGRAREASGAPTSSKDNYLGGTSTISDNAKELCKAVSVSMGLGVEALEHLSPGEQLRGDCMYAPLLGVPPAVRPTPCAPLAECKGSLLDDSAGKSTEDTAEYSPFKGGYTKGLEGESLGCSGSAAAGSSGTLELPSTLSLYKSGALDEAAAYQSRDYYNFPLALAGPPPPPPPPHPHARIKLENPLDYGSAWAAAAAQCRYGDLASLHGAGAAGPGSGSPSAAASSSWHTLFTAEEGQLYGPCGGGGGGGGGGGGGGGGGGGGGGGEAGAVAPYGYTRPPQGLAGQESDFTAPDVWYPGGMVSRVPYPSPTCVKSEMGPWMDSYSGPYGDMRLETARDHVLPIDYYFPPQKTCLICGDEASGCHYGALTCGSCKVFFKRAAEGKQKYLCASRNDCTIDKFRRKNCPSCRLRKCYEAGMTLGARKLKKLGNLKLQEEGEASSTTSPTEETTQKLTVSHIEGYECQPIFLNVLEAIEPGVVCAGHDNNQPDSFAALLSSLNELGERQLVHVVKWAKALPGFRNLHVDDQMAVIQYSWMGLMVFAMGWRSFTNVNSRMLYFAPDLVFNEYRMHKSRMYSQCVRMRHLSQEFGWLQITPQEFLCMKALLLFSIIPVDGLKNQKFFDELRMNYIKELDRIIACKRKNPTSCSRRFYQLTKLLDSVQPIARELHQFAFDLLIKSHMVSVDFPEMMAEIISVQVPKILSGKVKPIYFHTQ
# Format: cell-based
# Details: for activity in the PSA luciferase assay, in words: C4-2-PSA-rl cells, 1 nM R1881
SMILES,"activity in the PSA luciferase assay, in words",other results
Cc1ccccc1N1CCN(C(=O)[C@H]2C[C@@H]2c2ccccc2)CC1 (relative stereo) [compound 16],essentially inactive,–
Cc1noc(C)c1CSCC(=O)N1CCN(c2ccccc2)CC1 [5a],deleted activity,–
Cc1cccc(N2CCN(C(=O)CSCc3c(C)noc3C)CC2)c1 [5c],loss of activity,–
Cc1ccc(N2CCN(C(=O)CSCc3c(C)noc3C)CC2)cc1 [5d],loss of activity,–
COc1ccccc1N1CCN(C(=O)CSCc2c(C)noc2C)CC1 [5h],complete loss of activity,–
Cc1ccccc1N1CCN(C(=O)COCc2c(C)noc2C)CC1 [18a],abolished activity,–
Cc1ccccc1N1CCN(C(=O)CN(C)Cc2ccccc2)CC1 [18b],abolished activity,–
Cc1ccccc1N1CCN(C(=O)NCSCc2c(C)noc2C)CC1 [20a],inactive,–
Cc1ccccc1N1CCC(OC(=O)NCSCc2c(C)noc2C)CC1 [20b],inactive,–
"Cc1ccc(Cl)cc1N1CCN(C(=O)[C@@H]2C[C@@H]2c2ccc(F)cc2)CC1 [(1R,2S)-27]",–,"fold less potent than enantiomer (1S,2R)-27: ca. 10 fold"
"Cc1ccc(Cl)cc1N1CCN(C(=O)[C@H]2C[C@H]2c2ccc(F)cc2)CC1 [(1S,2R)-27]","substantially equipotent to the commercial AR antagonist, enzalutamide",–
Cc1ccccc1N1CCN(CCSCc2c(C)noc2C)CC1 [compound 6],–,fold increase in activity relative to amide 5b: 1.3 fold
Cc1ccccc1N1CCN(C(=O)CSc2ccccc2)CC1 [compound 9],abolished activity,–
Cc1ccccc1N1CCN(C(=O)C#Cc2ccccc2)CC1 [compound 10],essentially inactive,–
Cc1ccccc1N1CCN(C(=O)/C=C/c2ccccc2)CC1 [compound 11],essentially inactive,–
Cc1ccccc1N1CCN(C(=O)C[S+]([O-])Cc2c(C)noc2C)CC1 (stereo not shown) [compound 12],inactive,–
